{"source": "patent US6005008A", "about": "“IL-8 receptor antagonists” (SmithKline Beecham Corporation, priority 1997, dated 1999)", "target": "T1, recombinant IL-8 Rβ, or Type II, receptor (Homo sapiens, UniProt P25025)", "T1 sequence (P25025 1-360)": "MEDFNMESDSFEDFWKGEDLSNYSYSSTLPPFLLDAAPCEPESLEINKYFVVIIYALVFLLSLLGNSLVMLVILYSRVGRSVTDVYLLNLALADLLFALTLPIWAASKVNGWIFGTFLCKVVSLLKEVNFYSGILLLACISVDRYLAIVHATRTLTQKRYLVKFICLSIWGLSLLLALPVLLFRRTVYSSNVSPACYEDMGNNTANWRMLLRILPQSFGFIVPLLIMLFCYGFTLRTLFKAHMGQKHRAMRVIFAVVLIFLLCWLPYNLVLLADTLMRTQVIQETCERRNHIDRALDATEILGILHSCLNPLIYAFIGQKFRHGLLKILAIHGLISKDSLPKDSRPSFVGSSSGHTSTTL", "assay": "Receptor binding assay, 125I IL-8, IL-8Rβ CHO membranes (permissive model)", "from_the_text": "[^125 I] IL-8 (human recombinant) was obtained from Amersham Corp., Arlington Heights, Ill., with specific activity 2000 Ci/mmol. Gro-α was obtained from NEN-New England Nuclear. All other chemicals were of analytical grade. High levels of recombinant human IL-8 type α and β receptors were individually expressed in Chinese hamster ovary cells as described previously (Holmes, et al., Science, 1991, 253, 1278). The Chinese hamster ovary membranes were homogenized according to a previously described protocol (Haour, et al., J Biol Chem., 249 pp 2195-2205 (1974)). Except that the homogenization buffer was changed to 10 mM Tris-HCL, 1 mM MgS04, 0.5 mM EDTA (ethylene-diaminetetra-acetic acid), 1 mMPMSF (α-toluenesulphonyl fluoride), 0.5 mg/L Leupeptin, pH 7.5. Membrane protein concentration was determined using Pierce Co. micro-assay kit using bovine serum albumin as a standard. All assays were performed in a 96-well micro plate format. Each reaction mixture contained ^125 I IL-8 (0.25 nM) or ^125 I Gro-α and 0.5 μg/mL of IL-8Rα or 1.0 μg/mL or IL-8Rβ membranes in 20 mM Bis-Trispropane and 0.4 mM Tris HCl buffers, pH 8.0, containing 1.2 mM MgSO4, 0.1 mM EDTA, 25 mM NaCl and 0.03% CHAPS. […] The filter was then dried and counted on the Betaplate liquid scintillation counter. […]", "data": [{"smiles": "Cc1cc(Cl)ccc1NC(=O)Nc1ccccc1C(=O)O", "note": "[1-(2-Carboxyphenyl)-3-(4-chloro-2-methylphenyl)urea]", "values": [{"measurement": "found to be active at (IL-8 receptor inhibition)", "value": "about 75 μg/mL"}]}]}
